Laboratory results taken from the supplement of paper PMC13380429.
± gives the standard deviation of the averaged measurements.

Experiments:
Conditions in all cases: 72 h
Vero E6 [1] = assay: cell viability relative to DMSO; higher = less toxic
Caco-2 [2] = assay: as above
Calu-3 [3] = assay: as above
HepG2 [4] = assay: as above
U2OS [5] = assay: as above
Vero E6 [6] = assay: drug sensitivity score (DSS) for viability; higher = more toxic; extreme values may be limits of the assay
Caco-2 [7] = assay: as above
Calu-3 [8] = assay: as above
HepG2 [9] = assay: as above
U2OS [10] = assay: as above
Vero E6 [11] = assay: relative viability EC50 (midpoint between 100% and the lowest measured viability); higher = less toxic
Caco-2 [12] = assay: as above
Calu-3 [13] = assay: as above
HepG2 [14] = assay: as above
U2OS [15] = assay: as above

SMILES | cell viability (Vero E6 [1]; 1 nM) [%] | cell viability (Vero E6 [1]; 10 nM) [%] | cell viability (Vero E6 [1]; 100 nM) [%] | cell viability (Vero E6 [1]; 1000 nM) [%] | cell viability (Vero E6 [1]; 10000 nM) [%] | cell viability (Caco-2 [2]; 1 nM) [%] | cell viability (Caco-2 [2]; 10 nM) [%] | cell viability (Caco-2 [2]; 100 nM) [%] | cell viability (Caco-2 [2]; 1000 nM) [%] | cell viability (Caco-2 [2]; 10000 nM) [%] | cell viability (Calu-3 [3]; 1 nM) [%] | cell viability (Calu-3 [3]; 10 nM) [%] | cell viability (Calu-3 [3]; 100 nM) [%] | cell viability (Calu-3 [3]; 1000 nM) [%] | cell viability (Calu-3 [3]; 10000 nM) [%] | cell viability (HepG2 [4]; 1 nM) [%] | cell viability (HepG2 [4]; 10 nM) [%] | cell viability (HepG2 [4]; 100 nM) [%] | cell viability (HepG2 [4]; 1000 nM) [%] | cell viability (HepG2 [4]; 10000 nM) [%] | cell viability (U2OS [5]; 1 nM) [%] | cell viability (U2OS [5]; 10 nM) [%] | cell viability (U2OS [5]; 100 nM) [%] | cell viability (U2OS [5]; 1000 nM) [%] | cell viability (U2OS [5]; 10000 nM) [%] | drug sensitivity score (Vero E6 [6]) | drug sensitivity score (Caco-2 [7]) | drug sensitivity score (Calu-3 [8]) | drug sensitivity score (HepG2 [9]) | drug sensitivity score (U2OS [10]) | relative viability EC50 (Vero E6 [11]) [µM] | relative viability EC50 (Caco-2 [12]) [µM] | relative viability EC50 (Calu-3 [13]) [µM] | relative viability EC50 (HepG2 [14]) [µM] | relative viability EC50 (U2OS [15]) [µM]
S=C(S)OC1CC2CC1C1CCCC21 (stereo not given) [D609] | 98.7 | 98 | 102 | 96 | 98.5 | 100 | 99.2 | 102 | 105 | 102 | 99.3 | 102 | 104 | 103 | 98 | 103 | 98.7 | 102 | 100 | 108 | 100 | 106 | 96.3 | 102 | 96.6 | 0 | 0 | 0 | 0 | 0 | > 10 | > 10 | > 10 | > 10 | > 10
CN1[C@@H]2CC[C@H]1C[C@@H](OC(=O)N1Cc3ccccc3NC1=O)C2 [DAU-5884] | 101 | 94.6 | 97.9 | 96.8 | 91.3 | 93.3 | 91.7 | 89.5 | 97.3 | 92.7 | 96.5 | 105 | 98.1 | 99.3 | 94.4 | 105 | 93.3 | 94.5 | 110 | 97.3 | 97.2 | 102 | 94.4 | 100 | 100 | 0 | 0 | 0 | 0 | 0 | > 10 | > 10 | > 10 | > 10 | > 10
CCCC[C@@]1(C2CCCC2)Cc2cc(OCCCC(=O)O)c(Cl)c(Cl)c2C1=O [DCPIB] | 109 | 109 | 99.7 | 100 | 101 | 105 | 108 | 103 | 88.3 | 85.8 | 87 | 96.4 | 106 | 89.1 | 118 | 109 | 98.1 | 99.1 | 92.5 | 94.8 | 95.7 | 90.4 | 97.4 | 93.9 | 94.5 | 0 | 0.9 | 0 | 0 | 0 | > 10 | > 10 | > 10 | > 10 | > 10
CCN(c1nc(N)c(C(=O)NC(=N)N)nc1Cl)C(C)C [EIPA] | 103 | 94.2 | 96.2 | 94.2 | 104 | 90.8 | 104 | 101 | 100 | 105 | 92.4 | 104 | 91.9 | 102 | 84.9 | 100 | 97.4 | 101 | 85.6 | 86.5 | 99.7 | 100 | 99.8 | 102 | 93.8 | 0 | 0 | 0.2 | 1.2 | 0 | > 10 | > 10 | > 10 | > 10 | > 10
O=C(/C=C/c1cccnc1)NCCCCC1CCN(C(=O)c2ccccc2)CC1 [FK-866] | 106 | 106 | 2.7 | 1.2 | 1.9 | 93.7 | 65 | 5.8 | 5 | 5.6 | 110 | 112 | 7 | 5.1 | 4.6 | 84.6 | 57.9 | 16.6 | 11.3 | 11.7 | 97.8 | 98.1 | 0 | -0.5 | 0 | 29.4 | 33.2 | 28.1 | 31.9 | 30.7 | 0.0361 | 0.0134 | 0.0392 | 0.0092 | 0.0303
Cc1c(CN2CCN(C(=O)[C@H](C)O)CC2)sc2c(N3CCOCC3)nc(-c3cnc(N)nc3)nc12 [GDC-0980] | 96.5 | 101 | 87.7 | 62.9 | 23.4 | 99.4 | 88.5 | 93.1 | 47.8 | 22.4 | 107 | 101 | 93.6 | 42.2 | 19.2 | 104 | 102 | 89.9 | 49.5 | 15.9 | 101 | 98 | 98.8 | 78.9 | 18.1 | 8.8 | 11 | 11.9 | 11.1 | 7.8 | 0.899 | 0.561 | 0.537 | 0.67 | 1.53
CN1C(=O)N(c2ccc(C#N)c(C(F)(F)F)c2)C(=O)[C@]1(CO)c1ccccc1 [GLPG0492-R-enantiomer] | 96.6 ± 0.28 | 101 ± 2.3 | 96.7 ± 4.3 | 97 ± 0.99 | 94.3 ± 8.8 | 96.1 ± 13 | 99.5 ± 4.8 | 94.4 ± 5.4 | 96 ± 7.1 | 93.7 ± 7.5 | 95.9 ± 3.8 | 109 ± 4.2 | 106 ± 3.9 | 105 ± 2.9 | 110 ± 15 | 102 ± 8.3 | 103 ± 2.5 | 102.8 ± 0.78 | 100 ± 5.1 | 102 ± 3.8 | 101 ± 4.5 | 104 ± 3.9 | 99 ± 1.3 | 101 ± 5.1 | 97.5 ± 4.2 | 0 | 0 | 0 | 0 | 0 | > 10 | > 10 | > 10 | > 10 | > 10
O=C(O)CCNc1cc(N2CCc3ccccc3CC2)nc(-c2cccnc2)n1 [GSK-J2] | 97.3 | 108 | 98.9 | 98 | 99.1 | 96.6 | 100 | 98.6 | 94.8 | 87.1 | 100 | 97.1 | 91.5 | 105 | 97.2 | 99.7 | 97.3 | 96.6 | 98.8 | 103 | 98.5 | 95.4 | 94.8 | 98.3 | 91.2 | 0 | 0.2 | 0 | 0 | 0 | > 10 | > 10 | > 10 | > 10 | > 10
Cc1cc(SCc2sc(-c3ccc(C(F)(F)F)c(F)c3)nc2C)ccc1OCC(=O)O [GW-0742] | 96.3 | 101 | 96.7 | 98.3 | 99 | 99.9 | 101 | 89.1 | 106 | 87.2 | 95.1 | 94.8 | 92.5 | 90.5 | 98.3 | 102 | 74.6 | 94 | 90.1 | 99.9 | 102 | 103 | 97.9 | 104 | 99.7 | 0 | 0 | 0 | 0 | 0 | > 10 | > 10 | > 10 | > 10 | > 10
CCC(=O)N1CCOc2c(cc(-c3ccc(OC)c(OC)c3)cc2OC[C@H]2CCCN(C)C2)C1 [I-CBP-112] | 105 | 102 | 97.2 | 105 | 78.4 | 101 | 99.9 | 103 | 98.6 | 94.7 | 96.6 | 95 | 99.5 | 95.9 | 87.4 | 96.6 | 107 | 87.5 | 104 | 86 | 98.5 | 92 | 95.5 | 95.3 | 97.8 | 0.5 | 0 | 0.3 | 0.1 | 0 | > 10 | > 10 | > 10 | > 10 | > 10
CN1C(=O)c2c(nn(Cc3ccc(-c4cccc(F)n4)cc3)c2Nc2ccccc2)N2C1=N[C@@H]1CCC[C@@H]12 [ITI214] | 110 | 113 | 99.6 | 104 | 97.2 | 87.3 | 104 | 97.4 | 94.8 | 117 | 105 | 87 | 100 | 101 | 92.8 | 105 | 96.7 | 97.9 | 102 | 79.7 | 106 | 102 | 102 | 96.7 | 89.3 | 0 | 0 | 0 | 0.5 | 0 | > 10 | > 10 | > 10 | > 10 | > 10
O=C(NCCO)c1cc(C(=O)NCCO)cc(C(=O)NCCO)c1 [LM-22A4] | 105 | 98.3 | 106 | 98.4 | 105 | 96.8 | 96.1 | 97.3 | 99.2 | 100 | 104 | 105 | 97 | 102 | 91.9 | 104 | 103 | 101 | 97.5 | 102 | 94.6 | 97.7 | 96.1 | 99.5 | 93.5 | 0 | 0 | 0 | 0 | 0 | > 10 | > 10 | > 10 | > 10 | > 10
FC(F)(F)c1ccc(Nc2ncnc3cc(-c4ncccc4C(F)(F)F)ccc23)cc1 [MK-2295] | 99.7 | 98 | 98.3 | 97.8 | 95.2 | 100 | 95.8 | 91.9 | 83.9 | 90.6 | 112 | 96.9 | 101 | 100 | 81.9 | 92.7 | 94.9 | 91.5 | 116 | 98.4 | 100 | 95.5 | 101 | 98 | 97.5 | 0 | 1.2 | 0.5 | 0 | 0 | > 10 | > 10 | > 10 | > 10 | > 10
Cn1cnnc1Sc1c([N+](=O)[O-])ncn1C [MNITMT] | 105 | 99.3 | 99.2 | 97.5 | 88.7 | 99.9 | 96.3 | 104 | 94.2 | 95.8 | 100 | 111 | 94.9 | 85.5 | 92.2 | 100 | 99.9 | 93.1 | 94.1 | 99.7 | 102 | 97.7 | 99.5 | 97.4 | 98.4 | 0.1 | 0 | 1.7 | 0 | 0 | > 10 | > 10 | > 10 | > 10 | > 10
